Experimental data taken from US20240246944A1, “AMINO HETEROARYL COMPOUNDS AND COMPOSITIONS” (Anrui Biomedical Technology (Guangzhou) Co., Ltd., priority 2021, published 2024).
Like-named read-outs stand apart in the source and are kept apart here. One block for each molecule: values may come before it.

Experiments:
[1] = tested on: IL-23 reporter (JAK2/Tyk2); test: IL-23 induced STAT3 QUANTI-Blue reporter assay in HEK-Blue IL-23 cells; assay type: cell-based
Protocol: Biological Example 2. IL-23 Induced STAT3 QUANTI-Blue in HEK-Blue™ IL-23 Cells
HEK-Blue™ IL-23 cells were prepared at 2×10^5 cells/ml for adding 5000 cell/well and incubate plates containing compounds+cells for 1 hour at 37° C. Prepare IL-23 (treatment at final conc. 0.1 ng/mL) during incubation and add 2 ul per well of prepared cytokine in media to appropriate wells. The plate was incubated for overnight at 37° C. The next day, QUANTI-Blue solution was prepared. 18 ul of QUANTI-Blue solution per well was added into a new 384-well clear flat bottom plate, followed by addition of 2 ul of induced and treated HEK-Blue cell supernatant from overnight plate. The plate was incubated at 37° C. for 2 hours and SEAP levels determined.

[2] = tested on: IL-2 reporter (JAK1/3); test: IL-2 reporter assay in HEK-Blue IL-2 cells; assay type: cell-based
Protocol: (§1) IL-2 reporter assay. Seed HEK-Blue™ IL-2 Cells (1-3×10^4 cells/well/[…]) to 96 cell plate with DMEM (10% HFBS+1% PS) and incubate overnight at 5% CO2&37° C. Diluent compounds in DMSO. Three times dilution and 10 doses. Add compounds to cell plate and incubate 1 h at 5% CO2&37° C. Add IL-2 (1 ng/mL) to cell plate and incubate overnight at 5% CO2&37° C. Prepare QUANTI-Blue Solution: add 100 μl of QB reagent and 100 μl of QB buffer to 9800 μl sterile water. Use cell supernatant and QUANTI-Blue solution in proportion of 1 to 10, incubate 2 h at 37° C. Read OD630.

[3] = tested on: IFNγ reporter (JAK1/2); test: IFN-γ reporter assay in HEK-Dual IFN-γ cells; assay type: cell-based
Protocol: as §1, with “IFN-γ” for “IL-2”, “HEK-Dual™ IFN-γ” for “HEK-Blue™ IL-2”, “IFN-γ (0.1” for “IL-2 (1”

[4] = Dog PK; assay type: in vivo, Beagle dogs; conditions: for AUC(0-t) / Cmax: beagle, plasma
Protocol: Biological Example 7. Dog PK
Selected exemplified compounds of the present disclosure were also tested in dog for pharmacokinetic studies. The Beagle dogs were fasted overnight with free access to drinking water prior to treatment. All the dosing solutions were freshly prepared prior to dose administration. In intravenous administration animal group were given a single dose of compound at 1 mg·kg-1. Blood for plasma samples were collected at pre-dose, 5, 15, 30 min, 1, 2, 4, 8, 12 and 24 h through vein into tubes anticoagulated with EDTA-K2. In intragastric administration animal group were given a single dose of compound at 5 mg·kg-1. Blood for plasma samples (˜0.5 mL) were collected at pre-dose, 15, 30 min, 1, 2, 4, 8, 12 and 24 h post-dose through vein into tubes anticoagulated with EDTA-K2. Blood samples were inverted several times and were held on wet ice pending centrifugation. The samples were centrifuged (within 20 minutes of collection) in a centrifuge set at 4° C. for 10 minutes at 1500-1600 g to obtain plasma. Plasma samples were transferred and frozen immediately after separation and stored in a freezer set at below −70° C. prior to analysis.

[5] = molecular target: Jak1 JH2 (Homo sapiens (Human), UniProt P23458); test: Jak1 JH2 HTRF binding; conditions: biochemical assay
[6] = tested on: IFNα/β reporter (JAK1/Tyk2); test: IFN-alpha/beta reporter assay in HEK-Blue IFN-a/b cells; assay type: cell-based; conditions: cellular assay
Protocol: as §1, with “IFN-alpha/beta” for “IL-2”, “IFN-a/b cells” for “IL-2 Cells”, “IFN-alpha/beta (5 U/ml)” for “IL-2 (1 ng/mL)”

[7] = tested on: IL-12/IL-18 induced IFN-gamma production; test: In vivo inhibition of IL-12/IL-18 induced IFN-gamma; conditions: mice, oral; for inhibition of IFNγ production (reduction compared to vehicle treated group): 10 mpk
Protocol: Biological Example 5. In Vivo Inhibition of IL-12/IL-18 Induced IFN-Gamma
Selected exemplified compounds of the present disclosure (compound Examples 4 and 5) and BMS986165 were dosed orally to female C57BL/6J mice (Charles River). One hour later, 0.05 μg of recombinant rat IL-12 was administered IV. Another hour later following IL-12 administration, 1 μg of recombinant rat IL-18 was administered IV. Three hours later, blood was collected and serum were obtained by centrifugation for analysis of IFNγ by ELISA.

[8] = tested on: IL-23-induced psoriasis; test: In vivo mouse psoriasis model induced by human IL-23; conditions: mice, 7.5, 15 and 30 mg/kg BID oral gavage
Protocol: Biological Example 6. In Vivo Mouse Psoriasis Model Selected exemplified compounds of the present disclosure were also tested in a mouse psoriasis model induced by human IL-23. Psoriasis was induced in 6-8-week-old C57BL/6J female mice (Charles River) by intradermal injection of recombinant human IL-23 into the left ear. IL-23 injections were administered every other day from day 1 through day 9 of the study. Selected compounds at 7.5, 15, and 30 mg/kg, with 15 mg/kg BMS986165 as positive control were dosed BID by oral gavage, with the first dose given the evening before first IL-23 injection. Ear thickness was measured every other day, prior to the ear injection.

[9] = Mouse PK; assay type: in vivo
[10] = molecular target: N-terminal His-tagged TYK2 pseudokinase domain (Homo sapiens (Human), UniProt P29597); test: TYK2 JH2 domain SPA binding assay; conditions: displacement of H3 probe
Protocol: TYK2 JH2 Domain Binding Assay
After incubating at room temperature for 30 min, the inhibition was calculated by the displacement of [3H] 3 binding as determined by scintillation counting.

[11] = HEK-Blue IL-23 cells, Table 2, read-out: IL23 reporter assay_IC50
[12] = HEK-Blue IL-23, cellular assay, Table 3 and text, read-out: IL-23 reporter assay (JAK2/Tyk2) IC50
[13] = HEK-Blue, cellular assay, read-out: IL-2 reporter assay (JAK1/3) IC50
[14] = cellular assay, read-out: IFNγ reporter assay (JAK1/2) IC50
[15] = intravenous, 1 mg/kg single dose, read-out: AUC0-t (IV)
[16] = po, intragastric, 5 mg/kg single dose
[17] = po, intragastric, 5 mg/kg single dose, read-out: AUC0-t (PO)
[18] = HEK-Blue IL-23, HEK-Blue IL-23 cells, Table 2, read-out: IL23 reporter assay_IC50
[19] = cellular assay, Table 3 and text, read-out: IL-23 reporter assay (JAK2/Tyk2) IC50
[20] = HEK-Blue, read-out: IC50 in IL-2 reporter assay (JAK1/3)

Sequence of N-terminal His-tagged TYK2 pseudokinase domain (P29597 589-875): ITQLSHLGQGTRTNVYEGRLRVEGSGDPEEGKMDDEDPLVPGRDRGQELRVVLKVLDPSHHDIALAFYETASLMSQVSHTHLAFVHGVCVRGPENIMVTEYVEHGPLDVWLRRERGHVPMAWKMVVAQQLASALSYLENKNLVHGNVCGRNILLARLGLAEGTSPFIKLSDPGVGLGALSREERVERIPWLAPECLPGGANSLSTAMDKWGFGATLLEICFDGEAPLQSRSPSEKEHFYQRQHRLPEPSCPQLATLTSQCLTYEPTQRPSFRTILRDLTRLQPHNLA
Sequence of Jak1 JH2 (P23458 583-855): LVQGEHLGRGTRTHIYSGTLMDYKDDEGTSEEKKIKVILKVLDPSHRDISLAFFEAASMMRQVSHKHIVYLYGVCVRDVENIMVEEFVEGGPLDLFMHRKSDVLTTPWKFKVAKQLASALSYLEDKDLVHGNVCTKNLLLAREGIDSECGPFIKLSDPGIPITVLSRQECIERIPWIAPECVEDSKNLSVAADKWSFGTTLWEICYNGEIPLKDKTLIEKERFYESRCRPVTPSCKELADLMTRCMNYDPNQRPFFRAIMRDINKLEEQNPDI

IC50 [1, 11]: 0.318 µM
Structure (SMILES): [2H]C([2H])([2H])NC(=O)c1nnc(NC(=O)C2CC2)cc1Nc1cc(F)cc(C2=NC3(CC3)C(=O)N2)c1OC [Example 9]

Structure (SMILES): [2H]C([2H])([2H])NC(=O)c1nnc(NC(=O)C2CC2)cc1Nc1cccc(-c2ncn(C)n2)c1OC [BMS-986165, reference compound]
IC50 [1, 12]: 0.0035 µM
IC50 [1, 11]: 0.00376 µM
IC50 [2, 13]: 0.221 µM
IC50 ([2]; cellular assay, read-out: IL-2 reporter assay (JAK1/3) IC50): 0.221 µM
IC50 [3, 14]: 1.09 µM
AUC(0-t) [4, 15]: 3.8 µM·h
Cmax [4, 16]: 2.7 µM
AUC(0-t) [4, 17]: 22.3 µM·h

IC50 [1, 18]: 0.006 µM
IC50 [1, 12]: ~0.006 µM
IC50 [1, 19]: 0.0061 µM
IC50 [5]: 0.0132 µM
IC50 ([6]; HEK-Blue): ~0.005 µM
IC50 [6]: 0.0046 µM
IC50 [2, 13]: > 10 µM
IC50 [2, 20]: > 10 µM
IC50 [3, 14]: > 10 µM
AUC(0-t) [4, 15]: 6.4 µM·h
Cmax [4, 16]: 7.87 µM
AUC(0-t) [4, 17]: 47.5 µM·h
mouse PK profile compared to BMS986165, in words [9]: about the same with BMS986165
Structure (SMILES): [2H]C([2H])([2H])NC(=O)c1nnc(NC(=O)C2CC2)cc1Nc1cccc(-n2cnc(C)n2)c1OC [Example 5, 6-(cyclopropanecarboxamido)-4-((2-methoxy-3-(3-methyl-1H-1,2,4-triazol-1-yl)phenyl)amino)-N-(methyl-d3)pyridazine-3-carboxamide]
inhibition of IFNγ production (reduction compared to vehicle treated group) [7]: greater than 93%
inhibition of IL-12/IL-18 induced IFNγ production, result in words ([7]; positive control BMS986165): efficacy similar to the positive control tested
protection from IL-23-induced psoriasis (ear thickness), result in words [8]: dose-dependently protect mice from IL-23-induced psoriasis
pharmacokinetic profile in dog compared to BMS986165, in words [4]: superior pharmacokinetic profile in dog compared to BMS986165

IC50 [1, 11]: 0.025 µM
Structure (SMILES): [2H]C([2H])([2H])NC(=O)c1nnc(NC(=O)C2CC2)cc1Nc1cccc(-c2nc(=O)n(C)[nH]2)c1OC [Example 15]

IC50 [1, 11]: 0.038 µM
Structure (SMILES): [2H]C([2H])([2H])NC(=O)c1nnc(NC(=O)C2CC2)cc1Nc1cccc(-n2ncc(C)n2)c1OC [Example 13]

IC50 [10]: 27 nM
IC50 [1, 11]: 0.318 µM
Structure (SMILES): [2H]C([2H])([2H])NC(=O)c1cnc(NC(=O)C2CC2)cc1Nc1cccc(C(=O)NCc2ccc(NC(=O)C=C)cn2)c1OC [Example 1, 4-((3-(((5-acrylamidopyridin-2-yl)methyl)carbamoyl)-2-methoxyphenyl)amino)-6-(cyclopropanecarboxamido)-N-(methyl-d3)nicotinamide]

IC50 [1, 11]: 0.071 µM
Structure (SMILES): [2H]C([2H])([2H])NC(=O)c1nnc(NC(=O)C2CC2)cc1Nc1cc(F)cc(-n2ncc(C)n2)c1OC [Example 14]

IC50 [1, 11]: 0.074 µM
Structure (SMILES): [2H]C([2H])([2H])NC(=O)c1nnc(NC(=O)C2CC2)cc1Nc1cccc(C2=NC3(CC3)C(=O)N2)c1OC [Example 10]

IC50 [1, 18]: 0.018 µM
IC50 [1, 12]: ~0.018 µM
IC50 [1, 19]: 0.0183 µM
IC50 [5]: 0.00499 µM
IC50 ([6]; HEK-Blue): ~0.004 µM
IC50 [6]: 0.0037 µM
IC50 [2, 13]: 0.696 µM
IC50 [2, 20]: > 10 µM
IC50 [3, 14]: > 10 µM
IC50 ([3]; read-out: IC50 in IFN-gamma reporter assay (JAK1/2)): > 10 µM
Structure (SMILES): [2H]C([2H])([2H])NC(=O)c1nnc(NC(=O)C2CC2)cc1Nc1cccc(-c2cc(=O)n(C3CC3)cn2)c1OC [Example 4, 6-(cyclopropanecarboxamido)-4-((3-(1-cyclopropyl-6-oxo-1,6-dihydropyrimidin-4-yl)-2-methoxyphenyl)amino)-N-(methyl-d3)pyridazine-3-carboxamide]
inhibition of IFNγ production ([7]; 2.5 mpk): 52.7%
inhibition of IFNγ production ([7]; 5 mpk): 76.0%
inhibition of IFNγ production ([7]; 7.5 mpk): 88.6%
inhibition of IFNγ production (reduction compared to vehicle treated group) [7]: 93.3%
protection from IL-23-induced psoriasis (ear thickness), result in words [8]: dose-dependently protect mice from IL-23-induced psoriasis

IC50 [10]: 5.56 nM
IC50 [1, 11]: 0.0157 µM
Structure (SMILES): [2H]C([2H])([2H])NC(=O)c1cnc(NC(=O)C2CC2)cc1Nc1cccc(C(=O)NCc2ccc(NC(=O)CCl)cn2)c1OC [Example 2, 4-((3-(((5-(2-chloroacetamido)pyridin-2-yl)methyl)carbamoyl)-2-methoxyphenyl)amino)-6-(cyclopropanecarboxamido)-N-(methyl-d3)nicotinamide]

IC50 [1, 11]: 0.111 µM
Structure (SMILES): [2H]C([2H])([2H])NC(=O)c1cnc(NC(=O)C2CC2)cc1Nc1cccc(C2=NC3(CC3)C(=O)N2)c1OC [Example 11]

IC50 [10]: 16.1 nM
IC50 [1, 11]: 0.0065 µM
Structure (SMILES): [2H]C([2H])([2H])NC(=O)c1cnc(NC(=O)C2CC2)cc1Nc1cccc(-c2cc(=O)n(C3CC3)cn2)c1OC [Example 3, 6-(cyclopropanecarboxamido)-4-((3-(1-cyclopropyl-6-oxo-1,6-dihydropyrimidin-4-yl)-2-methoxyphenyl)amino)-N-(methyl-d3)nicotinamide]

IC50 [1, 11]: 0.015 µM
Structure (SMILES): [2H]C([2H])([2H])NC(=O)c1nnc(NC(=O)C2CC2)cc1Nc1cc(F)cc(-n2cnc(C)n2)c1OC [Example 12]

IC50 [10]: 30 nM
IC50 [1, 11]: 0.018 µM
Structure (SMILES): [2H]C([2H])([2H])NC(=O)c1cnc(NC(=O)C2CC2)cc1Nc1cc(F)cc(-c2cc(=O)n(C3CC3)cn2)c1OC [Example 6]
